Patent US12495798B2, “Nicotinamide compound and herbicidal composition comprising compound” (KOREA RESEARCH INSTITUTE OF CHEMICAL TECHNOLOGY, priority 2019, dated 2025)

Legend:
Assay type in all cases: in vivo
sorghum [1] = experiment: Herbicidal activity test against upland field weeds (foliar treatment test); design: key to Foliar treatment herbicidal activity, Sorghum: 0 (no control); 100 (complete control); conditions: 50 g ai/ha, scale 0-100; for plant injury at 50 g/ha: Sorghum
Procedure, shortened: (§1)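 Visual 0–100 control ratings relative to untreated plants, taken 14 (or 21) days after spraying foliage at 50 or 75 g a.i./ha. Spray solution: 50% acetone with 0.1% Tween-20; plants kept in greenhouse at 30±5 °C, 14 h light/10 h dark.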

barnyard grass [2] = experiment: as above; design: key to Foliar treatment herbicidal activity, barnyard grass: 0 (no control); 100 (complete control); conditions: 50 g ai/ha, scale 0-100; for pest or weed control at 50 g/ha: Echinochloa crus-galli
Procedure, shortened: as §1

crabgrass [3] = experiment: as above; design: key to Foliar treatment herbicidal activity, Crabgrass: 0 (no control); 100 (complete control); conditions: 50 g ai/ha, scale 0-100; for pest or weed control at 50 g/ha: Digitaria sanguinalis
Procedure, shortened: as §1

fall panicum [4] = experiment: as above; design: key to Foliar treatment herbicidal activity, Fall panicum: 0 (no control); 100 (complete control); conditions: 50 g ai/ha, scale 0-100; for pest or weed control at 50 g/ha: Panicum dichotomiflorum
Procedure, shortened: as §1

black nightshade [5] = experiment: as above; design: key to Foliar treatment herbicidal activity, black nightshade: 0 (no control); 100 (complete control); conditions: 50 g ai/ha, scale 0-100; for pest or weed control at 50 g/ha: Solanum nigrum
Procedure, shortened: as §1

indian jointvetch [6] = experiment: as above; design: key to Foliar treatment herbicidal activity, Indian jointvetch: 0 (no control); 100 (complete control); conditions: 50 g ai/ha, scale 0-100
Procedure, shortened: as §1

velvetleaf [7] = experiment: as above; design: key to Foliar treatment herbicidal activity, velvet leaf: 0 (no control); 100 (complete control); conditions: 50 g ai/ha; for pest or weed control at 50 g/ha: Abutilon theophrasti, scale 0-100, read-out: Foliar treatment herbicidal activity, velvet leaf; for Foliar treatment herbicidal activity, velvet leaf: scale 0-100
Procedure, shortened: as §1

cocklebur = experiment: as above; design: key to Foliar treatment herbicidal activity, Cocklebur: 0 (no control); 100 (complete control); conditions: 50 g ai/ha, scale 0-100; for pest or weed control at 50 g/ha: Xanthium strumarium
Procedure, shortened: as §1

bindweed [8] = experiment: as above; design: key to Foliar treatment herbicidal activity, Bindweed: 0 (no control); 100 (complete control); conditions: 50 g ai/ha, scale 0-100
Procedure, shortened: as §1

sorghum [9] = experiment: Herbicidal activity test against upland field weeds (soil treatment test); design: key to Soil treatment herbicidal activity, Sorghum: 0 (no control); 100 (complete control); conditions: 50 g ai/ha, scale 0 (no control) to 100 (complete control)
Method: (§2) Experimental Example 2: Herbicidal Activity Test Against Upland Field Weeds (Soil Treatment Test) Soil treatment was performed as follows: After filling a square plastic pot having a surface area of 350 cm^2 with sandy loam mixed with 1 g per pot (350 cm^2) of horticultural mixed fertilizer (N:P:K=11:10:11), seeds (10˜15 grains) or rootstocks (2 pieces) of 5 kinds of grassy weeds of sorghum, barnyard grass, quack grass, crabgrass, fall panicum, and 5 kinds of broadleaf weeds of black nightshade, indian jointvetch, velvetleaf, cocklebur, bindweed, which had been stored in a low temperature (6° C.), were sown. The day after sowing, test compound solutions were made by diluting with a preparation solution (including 50% acetone, 0.1% Tween-20) so that the final treatment amount of the test compounds was 50 or 75 g a.i./ha. The prepared test compound solution was used for treating soil surface by hand-spraying 14 mL per pot in a fume hood. After the treatment, it was managed under the same greenhouse conditions (average temperature 30±5° C., light/dark=14/10 hours), and after 14 days (after 21 days if necessary), the external symptoms and efficacy were investigated according to the scale of 0 (no control) to 100 (complete control). The results of Table 8 were obtained by evaluating weed control value to the untreated control by conducting visual assessment.

barnyard grass [10] = experiment: as above; design: key to Soil treatment herbicidal activity, barnyard grass: 0 (no control); 100 (complete control); conditions: 50 g ai/ha, scale 0 (no control) to 100 (complete control)
Method: as §2

quack grass [11] = experiment: as above; design: key to Soil treatment herbicidal activity, quack grass: 0 (no control); 100 (complete control); conditions: 50 g ai/ha, scale 0 (no control) to 100 (complete control)
Method: as §2

crabgrass [12] = experiment: as above; design: key to Soil treatment herbicidal activity, Crabgrass: 0 (no control); 100 (complete control); conditions: 50 g ai/ha, scale 0 (no control) to 100 (complete control); for pest or weed control at 50 g/ha: Digitaria sanguinalis
Method: as §2

fall panicum [13] = experiment: as above; design: key to Soil treatment herbicidal activity, Fall panicum: 0 (no control); 100 (complete control); conditions: 50 g ai/ha, scale 0 (no control) to 100 (complete control)
Method: as §2

black nightshade [14] = experiment: as above; design: key to Soil treatment herbicidal activity, black nightshade: 0 (no control); 100 (complete control); conditions: 50 g ai/ha, scale 0 (no control) to 100 (complete control)
Method: as §2

indian jointvetch [15] = experiment: as above; design: key to Soil treatment herbicidal activity, Indian jointvetch: 0 (no control); 100 (complete control); conditions: 50 g ai/ha, scale 0 (no control) to 100 (complete control)
Method: as §2

velvetleaf [16] = experiment: as above; design: key to Soil treatment herbicidal activity, velvet leaf: 0 (no control); 100 (complete control); conditions: 50 g ai/ha, scale 0 (no control) to 100 (complete control)
Method: as §2

bindweed [17] = experiment: as above; design: key to Soil treatment herbicidal activity, Bindweed: 0 (no control); 100 (complete control); conditions: 50 g ai/ha, scale 0 (no control) to 100 (complete control)
Method: as §2

quack grass [18] = experiment: Herbicidal activity test against upland field weeds (foliar treatment test); design: key to Foliar treatment herbicidal activity, quack grass: 0 (no control); 100 (complete control); conditions: 50 g ai/ha, scale 0-100
Procedure, shortened: as §1

CN(C(=O)c1ccc(C(F)(F)F)nc1OCc1nnnn1C(F)F)c1nnnn1C [Compound No. 1-8, 2-((1-(difluoromethyl)-1H-tetrazol-5-yl)methoxy)-N-methyl-N-(1-methyl-1H-tetrazol-5-yl)-6-(trifluoromethyl)nicotinamide]
Foliar treatment herbicidal activity, Sorghum (sorghum [1]): 0
Foliar treatment herbicidal activity, barnyard grass (barnyard grass [2]): 0
Foliar treatment herbicidal activity, Crabgrass (crabgrass [3]): 0
Foliar treatment herbicidal activity, Fall panicum (fall panicum [4]): 0
pest or weed control at 50 g/ha (black nightshade [5]): 98%
pest or weed control at 50 g/ha (indian jointvetch [6]): 70%
pest or weed control at 50 g/ha (velvetleaf [7]): 20%
pest or weed control at 50 g/ha (cocklebur): 20%
pest or weed control at 50 g/ha (bindweed [8]): 40%
Soil treatment herbicidal activity, Sorghum (sorghum [9]): 0
Soil treatment herbicidal activity, barnyard grass (barnyard grass [10]): 0
Soil treatment herbicidal activity, quack grass (quack grass [11]): 0
pest or weed control at 50 g/ha (crabgrass [12]): 30%
Soil treatment herbicidal activity, Fall panicum (fall panicum [13]): 0
Soil treatment herbicidal activity, black nightshade (black nightshade [14]): 0
Soil treatment herbicidal activity, Indian jointvetch (indian jointvetch [15]): 100
Soil treatment herbicidal activity, velvet leaf (velvetleaf [16]): 100
pest or weed control at 50 g/ha (bindweed [17]): 50%

CN(Cc1nnnn1C)c1nc(C(F)(F)F)ccc1C(=O)Nc1nnnn1C [Compound No. 1-27, 2-(methyl((1-methyl-1H-tetrazol-5-yl)methyl)amino)-N-(1-methyl-1H-tetrazol-5-yl)-6-(trifluoromethyl)nicotinamide]
plant injury at 50 g/ha (sorghum [1]): 80%
Foliar treatment herbicidal activity, barnyard grass (barnyard grass [2]): 100
pest or weed control at 50 g/ha (quack grass [18]): 30%
Foliar treatment herbicidal activity, Crabgrass (crabgrass [3]): 100
pest or weed control at 50 g/ha (fall panicum [4]): 80%
Foliar treatment herbicidal activity, Indian jointvetch (indian jointvetch [6]): 100
Foliar treatment herbicidal activity, velvet leaf (velvetleaf [7]): 100
Foliar treatment herbicidal activity, Cocklebur (cocklebur): 100
Foliar treatment herbicidal activity, Bindweed (bindweed [8]): 100
Soil treatment herbicidal activity, Sorghum (sorghum [9]): 100
Soil treatment herbicidal activity, barnyard grass (barnyard grass [10]): 100
pest or weed control at 50 g/ha (quack grass [11]): 20%
Soil treatment herbicidal activity, Crabgrass (crabgrass [12]): 100
Soil treatment herbicidal activity, Fall panicum (fall panicum [13]): 100
Soil treatment herbicidal activity, black nightshade (black nightshade [14]): 100
Soil treatment herbicidal activity, Indian jointvetch (indian jointvetch [15]): 100
Soil treatment herbicidal activity, velvet leaf (velvetleaf [16]): 100
pest or weed control at 50 g/ha (bindweed [17]): 80%

Cn1cnc(COc2nc(C(F)(F)F)ccc2C(=O)Nc2nnnn2C)n1 [Compound No. 2-43, 2-((1-methyl-1H-1,2,4-triazol-3-yl)methoxy)-N-(1-methyl-1H-tetrazol-5-yl)-6-(trifluoromethyl)nicotinamide]
plant injury at 50 g/ha (sorghum [1]): 20%
pest or weed control at 50 g/ha (barnyard grass [2]): 60%
Foliar treatment herbicidal activity, quack grass (quack grass [18]): 0
pest or weed control at 50 g/ha (crabgrass [3]): 30%
pest or weed control at 50 g/ha (fall panicum [4]): 50%
pest or weed control at 50 g/ha (black nightshade [5]): 95%
pest or weed control at 50 g/ha (indian jointvetch [6]): 20%
pest or weed control at 50 g/ha (velvetleaf [7]): 40%
pest or weed control at 50 g/ha (cocklebur): 20%
pest or weed control at 50 g/ha (bindweed [8]): 30%
Soil treatment herbicidal activity, Sorghum (sorghum [9]): 0
Soil treatment herbicidal activity, barnyard grass (barnyard grass [10]): 0
Soil treatment herbicidal activity, quack grass (quack grass [11]): 0
Soil treatment herbicidal activity, Crabgrass (crabgrass [12]): 0
Soil treatment herbicidal activity, Fall panicum (fall panicum [13]): 0
pest or weed control at 50 g/ha (indian jointvetch [15]): 20%
pest or weed control at 50 g/ha (velvetleaf [16]; Abutilon theophrasti, read-out: Soil treatment herbicidal activity, velvet leaf): 30%
Soil treatment herbicidal activity, Bindweed (bindweed [17]): 0

Cn1cnc(COCc2nc(C(F)(F)C(F)(F)F)ccc2C(=O)Nc2nnnn2C)n1 [Compound No. 2-83, 2-(((1-methyl-1H-1,2,4-triazol-3-yl)methoxy)methyl)-N-(1-methyl-1H-tetrazol-5-yl)-6-(perfluoroethyl)nicotinamide]
plant injury at 50 g/ha (sorghum [1]): 20%
pest or weed control at 50 g/ha (barnyard grass [2]): 90%
Foliar treatment herbicidal activity, quack grass (quack grass [18]): 0
pest or weed control at 50 g/ha (crabgrass [3]): 70%
pest or weed control at 50 g/ha (fall panicum [4]): 70%
pest or weed control at 50 g/ha (black nightshade [5]): 98%
pest or weed control at 50 g/ha (indian jointvetch [6]): 70%
pest or weed control at 50 g/ha (velvetleaf [7]): 70%
pest or weed control at 50 g/ha (cocklebur): 60%
pest or weed control at 50 g/ha (bindweed [8]): 40%
Soil treatment herbicidal activity, Sorghum (sorghum [9]): 0
Soil treatment herbicidal activity, barnyard grass (barnyard grass [10]): 0
Soil treatment herbicidal activity, quack grass (quack grass [11]): 0
pest or weed control at 50 g/ha (crabgrass [12]): 70%
pest or weed control at 50 g/ha (fall panicum [13]; Panicum dichotomiflorum): 60%
Soil treatment herbicidal activity, black nightshade (black nightshade [14]): 100
pest or weed control at 50 g/ha (indian jointvetch [15]): 80%
Soil treatment herbicidal activity, velvet leaf (velvetleaf [16]): 100
pest or weed control at 50 g/ha (bindweed [17]): 40%

CCOC(=O)OC(C)N(C(=S)c1ccc(C(F)(F)F)nc1CSCc1nnn(C)n1)c1nnnn1C (centres unmarked) [Compound No. 4-9, ethyl (1-(N-(1-methyl-1H-tetrazol-5-yl)-2-((((2-methyl-2H-tetrazol-5-yl)methyl)thio)methyl)-6-(trifluoromethyl)pyridin-3-carbothioamido)ethyl)carbonate]
Foliar treatment herbicidal activity, Sorghum (sorghum [1]): 70
Foliar treatment herbicidal activity, barnyard grass (barnyard grass [2]): 100
Foliar treatment herbicidal activity, quack grass (quack grass [18]): 0
Foliar treatment herbicidal activity, Crabgrass (crabgrass [3]): 98
Foliar treatment herbicidal activity, Fall panicum (fall panicum [4]): 90
Foliar treatment herbicidal activity, black nightshade (black nightshade [5]): 98
Foliar treatment herbicidal activity, Indian jointvetch (indian jointvetch [6]): 98
Foliar treatment herbicidal activity, velvet leaf (velvetleaf [7]): 98
Foliar treatment herbicidal activity, Cocklebur (cocklebur): 100
Foliar treatment herbicidal activity, Bindweed (bindweed [8]): 100
Soil treatment herbicidal activity, Sorghum (sorghum [9]): 0
Soil treatment herbicidal activity, barnyard grass (barnyard grass [10]): 0
Soil treatment herbicidal activity, quack grass (quack grass [11]): 0
Soil treatment herbicidal activity, Crabgrass (crabgrass [12]): 0
Soil treatment herbicidal activity, Fall panicum (fall panicum [13]): 0
Soil treatment herbicidal activity, black nightshade (black nightshade [14]): 100
Soil treatment herbicidal activity, Indian jointvetch (indian jointvetch [15]): 100
Soil treatment herbicidal activity, velvet leaf (velvetleaf [16]): 100

CC(OC(=O)OC1CCCCC1)N(C(=O)c1ccc(C(F)(F)F)nc1COCc1nnn(C)n1)c1nnnn1C (centres unmarked) [Compound No. 4-11, cyclohexyl(1-(N-(1-methyl-1H-tetrazol-5-yl)-2-(((2-methyl-2H-tetrazol-5-yl)methoxy)methyl)-6-(trifluoromethyl)nicotinamido)ethyl)carbonate]
Foliar treatment herbicidal activity, Sorghum (sorghum [1]): 60
Foliar treatment herbicidal activity, barnyard grass (barnyard grass [2]): 98
Foliar treatment herbicidal activity, quack grass (quack grass [18]): 0
Foliar treatment herbicidal activity, Crabgrass (crabgrass [3]): 98
Foliar treatment herbicidal activity, Fall panicum (fall panicum [4]): 95
Foliar treatment herbicidal activity, black nightshade (black nightshade [5]): 100
Foliar treatment herbicidal activity, Indian jointvetch (indian jointvetch [6]): 98
Foliar treatment herbicidal activity, velvet leaf (velvetleaf [7]): 100
Foliar treatment herbicidal activity, Cocklebur (cocklebur): 98
Foliar treatment herbicidal activity, Bindweed (bindweed [8]): 100
Soil treatment herbicidal activity, Sorghum (sorghum [9]): 0
Soil treatment herbicidal activity, barnyard grass (barnyard grass [10]): 100
Soil treatment herbicidal activity, quack grass (quack grass [11]): 0
Soil treatment herbicidal activity, Crabgrass (crabgrass [12]): 100
Soil treatment herbicidal activity, Fall panicum (fall panicum [13]): 60
Soil treatment herbicidal activity, black nightshade (black nightshade [14]): 100
Soil treatment herbicidal activity, Indian jointvetch (indian jointvetch [15]): 40
Soil treatment herbicidal activity, velvet leaf (velvetleaf [16]): 100
Soil treatment herbicidal activity, Bindweed (bindweed [17]): 0
